Calls of active or inactive are those of the source. The rule behind the calls is not given here.
Legend:
[1] = Toxicity in female BALB/c mouse assessed as change in heart administered subcutaneously measured upto 16 days; assay type: tissue-based; conditions: in vivo, sc, 384 h, time < 16 day
[2] = biological target: Eukaryotic translation initiation factor 3 subunit D (Homo sapiens) (UniProt O15371); test: Induction of thermal stabilization of EIF3D in human MDA-MB-231 cells at 1 uM by CETSA analysis; assay type: cell-based
BT-549 [3] = test: Induction of apoptosis in human BT-549 cells assessed as viable cells at 0.5 uM incubated for 24 hrs by Annexin V-PI staining based flow cytometric analysis (reference value: 93.0%); assay type: functional; conditions: read-out: Activity
BT-549 [4] = test: Induction of apoptosis in human BT-549 cells assessed as early apoptotic cells at 0.5 uM incubated for 24 hrs by Annexin V-PI staining based flow cytometric analysis (reference value: 0.78%); assay type: functional
BT-549 [5] = test: Induction of apoptosis in human BT-549 cells assessed as upregulation of cleavage of PARP level at 0.5 to 2 uM incubated for 24 hrs by Western blot analysis; assay type: functional, cell-based; conditions: dose 0.5-2 µM
BT-549 [6] = test: Antiproliferative activity against human BT-549 cells xenografted in female BALB/c mouse model assessed as as fold change in cleavage of caspase-3 level at 10 mg/kg administered subcutaneously incubated for 24 hrs by Western blot analysis (reference value: 1.00%); assay type: functional; conditions: route sc
BT-549 [7] = test: Inhibition of DNA replication in human BT-549 cells assessed as reduction in EDU fluorescence intensity by EDU staining based fluorescence microscopic analysis; assay type: functional, cell-based; conditions: dose 0.5-2 µM
MDA-MB-231 [8] = test: Inhibition of cell migration in human MDA-MB-231 cells assessed as reduction in MMP-2 protein level at 1 uM incubated for 24 hrs by DAPI staining based immunofluorescence analysis; assay type: functional
BT-549 [9] = test: Induction of ER stress in human BT-549 cells assessed as activation of CHOP protein level incubated for 24 hrs by Western blot analysis; assay type: functional, cell-based; conditions: dose 0.5-2 µM
BT-549 [10] = test: Inhibition of cell migration in human BT-549 cells assessed as reduction in wound healing ability at 0 to 2 uM incubated for 48 hrs by Wound healing assay; assay type: functional, cell-based; conditions: dose 0-2 µM
BT-549 [11] = test: Inhibition of cell migration in human BT-549 cells assessed as reduction in MMP-2 protein level at 1 uM incubated for 24 hrs by DAPI staining based immunofluorescence analysis; assay type: functional
BT-549 [12] = test: Antiproliferative activity against human BT-549 cells xenografted in female BALB/c mouse model assessed as fold change in upregulation of BIP protein level at 10 mg/kg administered subcutaneously incubated for 24 hrs by Western blot analysis (reference value: 1.00%); assay type: functional; conditions: route sc
BT-549 [13] = test: Induction of apoptosis in human BT-549 cells assessed as necrotic cells at 1 uM incubated for 24 hrs by Annexin V-PI staining based flow cytometric analysis (reference value: 3.32%); assay type: functional
[14] = Toxicity in female BALB/c mouse assessed as change in brain administered subcutaneously measured upto 16 days; assay type: tissue-based; conditions: in vivo, sc, 384 h, time < 16 day
MDA-MB-231 [15] = test: Induction of apoptosis in human MDA-MB-231 cells assessed as necrotic cells at 0.5 uM incubated for 24 hrs by Annexin V-PI staining based flow cytometric analysis (reference value: 1.29%); assay type: functional
BT-549 [16] = test: Induction of ER stress in human BT-549 cells assessed as activation of Xbp-1s protein level incubated for 24 hrs by Western blot analysis; assay type: functional, cell-based; conditions: dose 0.5-2 µM
BT-549 [17] = test: Induction of apoptosis in human BT-549 cells assessed as late apoptotic cells at 2 uM incubated for 24 hrs by Annexin V-PI staining based flow cytometric analysis (reference value: 2.95%); assay type: functional
MDA-MB-231 [18] = test: Inhibition of cell migration in human MDA-MB-231 cells assessed as decrease in SNAIL level at 1 uM incubated for 24 hrs by DAPI staining based immunofluorescence analysis; assay type: functional
[19] = Selectivity ratio of IC50 for antiproliferative activity against human MCF-10A cells assessed as inhibition of cell proliferation incubated for 48 hrs by MTT assay to IC50 for antiproliferative activity against human MDA-MB-231 cells assessed as inhibition of cell proliferation incubated for 48 hrs by MTT assay; assay type: cell-based; conditions: MCF-10A cells versus MDA-MB-231 cells, read-out: Ratio IC50
BT-549 [20] = test: Inhibition of cell migration in human BT-549 cells assessed as increase in E-cadherin level by incubated for 24 hrs by Western blot analysis; assay type: functional, cell-based; conditions: dose 0.5-2 µM
MDA-MB-231 [21] = test: Antiproliferative activity against human MDA-MB-231 cells xenografted in female BALB/c mouse model assessed as fold change in upregulation of BIP protein level at 20 mg/kg administered subcutaneously incubated for 24 hrs by Western blot analysis (reference value: 1.00%); assay type: functional; conditions: route sc
BT-549 [22] = test: Induction of apoptosis in human BT-549 cells assessed as early apoptotic cells at 1 uM incubated for 24 hrs by Annexin V-PI staining based flow cytometric analysis (reference value: 0.78%); assay type: functional
[23] = Toxicity in female BALB/c mouse assessed as change in spleen administered subcutaneously measured upto 16 days; assay type: tissue-based; conditions: in vivo, sc, 384 h, time < 16 day
BT-549 [24] = test: Inhibition of colony formation in human BT-549 cells incubated for 7 days by Crystal violet staining based analysis; assay type: functional, cell-based; conditions: dose 0.5-2 µM, time 7.0 day
BT-549 [25] = test: Inhibition of glycolysis in human BT-549 cells assessed as decrease in PKM2 protein level at 0.5 to 2 uM incubated for 24 hrs by Western blot analysis; assay type: functional, cell-based; conditions: dose 0.5-2 µM
MDA-MB-231 [26] = test: Inhibition of glycolysis in human MDA-MB-231 cells assessed as decrease in GLUT4 protein level at 0.5 to 2 uM incubated for 24 hrs by Western blot analysis; assay type: functional, cell-based; conditions: dose 0.5-2 µM
MDA-MB-231 [27] = test: Antiproliferative activity against human MDA-MB-231 cells xenografted in female BALB/c mouse model assessed as fold change in upregulation of BAX protein level at 5 mg/kg administered subcutaneously incubated for 24 hrs by Western blot analysis (reference value: 1.00%); assay type: functional; conditions: route sc
BT-549 [28] = test: Inhibition of cell proliferation in human BT-549 cells assessed as reduction in Ki-67 expression at 0.5 to 2 uM incubated for 24 hrs by DAPI staining based immunofluorescence analysis; assay type: functional; conditions: dose 0.5-2 µM
BT-549 [29] = test: Antiproliferative activity against human BT-549 cells xenografted in female BALB/c mouse model assessed as fold change in upregulation of BIP protein level at 20 mg/kg administered subcutaneously incubated for 24 hrs by Western blot analysis (reference value: 1.00%); assay type: functional; conditions: route sc
[30] = Toxicity in female BALB/c mouse xenografted with human MDA-MB-231 cells assessed as effect on body weight at 5 to 20 mg/kg, sc and measured daily; assay type: organism-based; conditions: in vivo, dose 5-20 mg/kg
MDA-MB-231 [31] = test: Antiproliferative activity against human MDA-MB-231 cells xenografted in female BALB/c mouse model assessed as fold change in upregulation of BAX protein level at 20 mg/kg administered subcutaneously incubated for 24 hrs by Western blot analysis (reference value: 1.00%); assay type: functional; conditions: route sc
BT-549 [32] = test: Inhibition of cell migration in human BT-549 cells assessed as decrease in SNAIL level at 1 uM incubated for 24 hrs by DAPI staining based immunofluorescence analysis; assay type: functional
MDA-MB-231 [33] = test: Induction of apoptosis in human MDA-MB-231 cells assessed as upregulation of Bax expression at 0.5 to 2 uM incubated for 24 hrs by Western blot analysis; assay type: functional, cell-based; conditions: dose 0.5-2 µM

Chain of Eukaryotic translation initiation factor 3 subunit D (Homo sapiens) (O15371 whole entry): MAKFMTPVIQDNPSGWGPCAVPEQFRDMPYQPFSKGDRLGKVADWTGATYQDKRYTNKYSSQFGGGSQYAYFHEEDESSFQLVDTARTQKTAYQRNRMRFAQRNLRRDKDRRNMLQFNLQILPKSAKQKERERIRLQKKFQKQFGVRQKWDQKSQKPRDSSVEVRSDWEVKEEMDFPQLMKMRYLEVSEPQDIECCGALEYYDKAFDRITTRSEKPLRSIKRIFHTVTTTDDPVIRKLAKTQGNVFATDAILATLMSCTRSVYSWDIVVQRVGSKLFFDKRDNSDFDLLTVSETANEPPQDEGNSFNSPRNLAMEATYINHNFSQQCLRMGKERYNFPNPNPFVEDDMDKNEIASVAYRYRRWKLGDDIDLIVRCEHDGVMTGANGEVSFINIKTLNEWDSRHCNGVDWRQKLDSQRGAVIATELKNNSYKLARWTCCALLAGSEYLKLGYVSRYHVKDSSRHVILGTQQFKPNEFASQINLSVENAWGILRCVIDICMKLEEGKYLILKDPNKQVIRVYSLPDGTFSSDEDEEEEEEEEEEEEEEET

## CC(C)=CCC/C(C)=C/[C@H]1OC(=O)CC12C[C@H](OC(=O)Cc1ccc(NC(=O)/C=C/c3ccccc3)cc1)C=CC2=O (stereo partly drawn)
[1]
  Activity: Non-Toxic
[2]
  Activity: Active
BT-549 [3]
  viability at 0.5 µM: 91.7%
BT-549 [4]
  Activity: 0.91%
BT-549 [5]
  Activity: Active
BT-549 [6]
  fold change (FC): 1.72
BT-549 [7]
  inhibition: Dose-Dependent Effect
MDA-MB-231 [8]
  inhibition: Active
BT-549 [9]
  Activity: Dose-Dependent Effect
BT-549 [10]
  inhibition: Active
BT-549 [11]
  inhibition: Active
BT-549 [12]
  fold change (FC): 1.9
BT-549 [13]
  Activity: 5.44%
[14]
  Activity: Non-Toxic
MDA-MB-231 [15]
  Activity: 12.7%
BT-549 [16]
  Activity: Active
BT-549 [17]
  Activity: 50.1%
MDA-MB-231 [18]
  inhibition: Active
[19]
  selectivity ratio at 48 h: 36.4
BT-549 [20]
  inhibition: Dose-Dependent Effect
MDA-MB-231 [21]
  fold change (FC): 2.42
BT-549 [22]
  Activity: 3.62%
[23]
  Activity: Non-Toxic
BT-549 [24]
  inhibition: Dose-Dependent Effect
BT-549 [25]
  inhibition: Active
MDA-MB-231 [26]
  inhibition: Active
MDA-MB-231 [27]
  fold change (FC): 1.05
BT-549 [28]
  inhibition: Active
BT-549 [29]
  fold change (FC): 2.37
[30]
  Activity: Non-Toxic
MDA-MB-231 [31]
  fold change (FC): 1.82
BT-549 [32]
  inhibition: Active
MDA-MB-231 [33]
  Activity: Active

— ChEMBL document CHEMBL6071165, “Design, synthesis and biological evaluation of plant-derived miliusol derivatives achieve TNBC profound regression in vivo” (Eur J Med Chem, 2024)
